In patent publication EP0176049A2, “Aminoalkylnaphtalene derivatives having pharmacological activities” (priority 1984, dated 1986):

Columns and labels:
[1] = target: enzymes responsible for the enkephalins hydrolysis; test: inhibition of the enzymes responsible for the enkephalins hydrolysis; type: biochemical
mouse [2] = test: acute toxicity in the mouse; type: in vivo; settings: i.p. administration
mouse [3] = test: hot plate test (analgesic activity); type: in vivo
[4] = acute toxicity in the mouse; type: in vivo; settings: in vivo, ip, i.p. administration
rat = test: paw oedema by carrageenin according to Randall-Selitto (antiinflammatory activity); type: in vivo; settings: ip

Compound | IC50 [1] | LD50 (mouse [2]) | ED50 (mouse [3]; ip, mouse, analgesic activity) | LD50 [4] | ED50 (rat) | ED50 (mouse [3]; Mus musculus, route and species not restated for this value) | kind of activity in the hot plate test (reversibility by naloxone) (mouse [3]; naloxone antagonism)
2-(3-dimethylamino-l-t-butyl-l-hydroxypropyl)-6-methoxy- naphtalene [Example 3] | 5 mM | 120,96 ± 5,32. mg/kg i.p. |  |  |  |  | 
CCC(O)(c1ccc2cc(O)ccc2c1)C(C)CN(C)C (stereo not drawn) [Example 2] |  |  | 5.6 ± 1.51 mg/kg | 56.2 mg/kg | 1.25 mg/kg |  | 
CCC(O)(c1ccc2cc(OC)ccc2c1)C(C)CN(C)C (stereo not drawn) [Example 1] | 4 mM |  |  | 65.8 mg/kg |  | 13.5 mg/kg | partially reversible by naloxone
